Data published in US8383619B2, “Pharmaceutical compounds” (Astex Therapeutics Limited, priority 2008, dated 2013).

Legend:
Assay type in all cases: cell-based
one hundred cell lines = assay: Anti-proliferative assays against one hundred cell lines; details: wide range of different cell lines
Protocol: The anti-proliferative activities of the parent compounds of the pro-drugs of the invention may be determined by measuring the ability of the compounds to inhibition of cell growth in a number of cell lines such as the human colon cancer cell line HCT116. Inhibition of cell growth is measured using the Alamar Blue assay (Nociari, M. M, Shalev, A., Benias, P., Russo, C. Journal of Immunological Methods 1998, 213, 157-167). The method is based on the ability of viable cells to reduce resazurin to its fluorescent product resorufin. For each proliferation assay cells are plated onto 96 well plates and allowed to recover for 16 hours prior to the addition of inhibitor compounds for a further 72 hours. At the end of the incubation period 10% (v/v) Alamar Blue is added and incubated for a further 6 hours prior to determination of fluorescent product at […]. In the case of the non-proliferating cell assay cells are maintained at confluence for 96 hour prior to the addition of inhibitor compounds for a further 72 hours. The number of viable cells is determined by Alamar Blue assay as before. Cell lines may be obtained from the ECACC (European Collection of cell Cultures). […]

FTC-238 = assay: Anti-proliferative assay (Oncodesign); details: FTC-238 (THYROID); read-out: IC50 (Concentration of test compound)
Protocol: (§1) The anti-proliferative activities of the parent compounds of the pro-drugs of the invention may be determined by measuring the ability of the compounds to inhibition of cell growth in a number of cell lines such as the human colon cancer cell line HCT116. Inhibition of cell growth is measured using the Alamar Blue assay (Nociari, M. M, Shalev, A., Benias, P., Russo, C. Journal of Immunological Methods 1998, 213, 157-167). The method is based on the ability of viable cells to reduce resazurin to its fluorescent product resorufin. For each proliferation assay cells are plated onto 96 well plates and allowed to recover for 16 hours prior to the addition of inhibitor compounds for a further 72 hours. At the end of the incubation period 10% (v/v) Alamar Blue is added and incubated for a further 6 hours prior to determination of fluorescent product at […]. In the case of the non-proliferating cell assay cells are maintained at confluence for 96 hour prior to the addition of inhibitor compounds for a further 72 hours. The number of viable cells is determined by Alamar Blue assay as before. Cell lines may be obtained from the ECACC (European Collection of cell Cultures).
(§2) The parent compound of the pro-drugs of Examples 1 to 25 i.e. (2,4-dihydroxy-5-isopropyl-phenyl)-[5-(4-methyl-piperazin-1-ylmethyl)-1,3-dihydro-isoindol-2-yl]-methanone, in the form of its L-lactate salt, was tested in anti-proliferative assays against one hundred cell lines by Oncodesign (Dijon, France). The IC50 values against each cell line are set out in the table below and the figures in the table refer to nanomolar concentrations. The compounds were tested up to a concentration of 10,000 nanomolar.

DU 145 = assay: Anti-proliferative assay (Oncodesign); details: Homo sapiens; DU 145 (PROSTATE); read-out: IC50 (Concentration of test compound)
Protocol: as §1, §2

LB771-HNSCC = assay: Anti-proliferative assay (Oncodesign); details: LB771-HNSCC (HEAD AND NECK); read-out: IC50 (Concentration of test compound)
Protocol: as §1, §2

NCI-H596 = assay: Anti-proliferative assay (Oncodesign); details: Homo sapiens; NCI-H596 (LUNG); read-out: IC50 (Concentration of test compound)
Protocol: as §1, §2

K-562 = assay: Anti-proliferative assay (Oncodesign); details: Homo sapiens, K562; K-562 (BLOOD); read-out: IC50 (Concentration of test compound)
Protocol: as §1, §2

LB11-SCLC/OC1 = assay: Anti-proliferative assay (Oncodesign); details: LB11-SCLC/OC1 (LUNG); read-out: IC50 (Concentration of test compound)
Protocol: as §1, §2

MDA-MB-435S = assay: Anti-proliferative assay (Oncodesign); details: Homo sapiens; MDA-MB-435S (BREAST); read-out: IC50 (Concentration of test compound)
Protocol: as §1, §2

CMEL-5 = assay: Anti-proliferative assay (Oncodesign); details: CMEL-5 (SKIN); read-out: IC50 (Concentration of test compound)
Protocol: as §1, §2

LB831-BLC = assay: Anti-proliferative assay (Oncodesign); details: LB831-BLC (URINARY BLADDER); read-out: IC50 (Concentration of test compound)
Protocol: as §1, §2

BB64-RCC = assay: Anti-proliferative assay (Oncodesign); details: BB64-RCC (KIDNEY); read-out: IC50 (Concentration of test compound)
Protocol: as §1, §2

CCRF-CEM = assay: Anti-proliferative assay (Oncodesign); details: Homo sapiens; CCRF-CEM (BLOOD); read-out: IC50 (Concentration of test compound)
Protocol: as §1, §2

A-375 = assay: Anti-proliferative assay (Oncodesign); details: Homo sapiens; A-375 (SKIN); read-out: IC50 (Concentration of test compound)
Protocol: as §1, §2

LNCaP-FGC = assay: Anti-proliferative assay (Oncodesign); details: LNCaP-FGC (PROSTATE); read-out: IC50 (Concentration of test compound)
Protocol: as §1, §2

BB30-HNSCC = assay: Anti-proliferative assay (Oncodesign); details: BB30-HNSCC (HEAD AND NECK); read-out: IC50 (Concentration of test compound)
Protocol: as §1, §2

U-937 = assay: Anti-proliferative assay (Oncodesign); details: Homo sapiens; U-937 (BLOOD); read-out: IC50 (Concentration of test compound)
Protocol: as §1, §2

LAMA-84 = assay: Anti-proliferative assay (Oncodesign); details: Homo sapiens; LAMA-84 (BLOOD); read-out: IC50 (Concentration of test compound)
Protocol: as §1, §2

A-375-SM = assay: Anti-proliferative assay (Oncodesign); details: Homo sapiens, A375-SM; A-375-SM (SKIN); read-out: IC50 (Concentration of test compound)
Protocol: as §1, §2

K-562/Gleevec = assay: Anti-proliferative assay (Oncodesign); details: Homo sapiens, K562; K-562/Gleevec (BLOOD); read-out: IC50 (Concentration of test compound)
Protocol: as §1, §2

PANC-1 = assay: Anti-proliferative assay (Oncodesign); details: Homo sapiens; PANC-1 (PANCREAS); read-out: IC50 (Concentration of test compound)
Protocol: as §1, §2

LS 174T = assay: Anti-proliferative assay (Oncodesign); details: Homo sapiens, LS174T; LS 174T (COLON); read-out: IC50 (Concentration of test compound)
Protocol: as §1, §2

LB61-NSCLC = assay: Anti-proliferative assay (Oncodesign); details: LB61-NSCLC (LUNG); read-out: IC50 (Concentration of test compound)
Protocol: as §1, §2

KATO III = assay: Anti-proliferative assay (Oncodesign); details: Homo sapiens; KATO III (STOMACH); read-out: IC50 (Concentration of test compound)
Protocol: as §1, §2

IGROV-1/CDDP = assay: Anti-proliferative assay (Oncodesign); details: Homo sapiens; IGROV-1/CDDP (OVARY); read-out: IC50 (Concentration of test compound)
Protocol: as §1, §2

NCI-H460 = assay: Anti-proliferative assay (Oncodesign); details: Homo sapiens; NCI-H460 (LUNG); read-out: IC50 (Concentration of test compound)
Protocol: as §1, §2

- IC50 (NCI-H596): 0.084 µM
- IC50 (K-562): 0.147 µM
- IC50 (MDA-MB-435S): 0.026 µM
- IC50 (CCRF-CEM): 0.107 µM
- IC50 (A-375): 1.48 µM
- IC50 (LNCaP-FGC): 0.078 µM
- IC50 (U-937): 0.104 µM
- IC50 (A-375-SM): 0.34 µM
- IC50 (K-562/Gleevec): 0.175 µM
- IC50 (PANC-1): 0.327 µM
- IC50 (NCI-H460): 0.118 µM
Structure (SMILES): CC(C)c1cc(C(=O)N2Cc3ccc(CN4CCN(C)CC4)cc3C2)c(O)cc1O [(2,4-dihydroxy-5-isopropyl-phenyl)-[5-(4-methyl-piperazin-1-ylmethyl)-1,3-dihydro-isoindol-2-yl]-methanone]
- anti-proliferative activity (one hundred cell lines): potent anti-proliferative activity
- IC50 (FTC-238): 0.026 µM
- IC50 (DU 145): 0.085 µM
- IC50 (LB771-HNSCC): 0.391 µM
- IC50 (LB11-SCLC/OC1): 0.017 µM
- IC50 (CMEL-5): 0.13 µM
- IC50 (LB831-BLC): 0.149 µM
- IC50 (BB64-RCC): > 10 µM
- IC50 (BB30-HNSCC): 0.273 µM
- IC50 (LAMA-84): 1.1 µM
- IC50 (LS 174T): 0.159 µM
- IC50 (LB61-NSCLC): > 10 µM
- IC50 (KATO III): 0.162 µM
- IC50 (IGROV-1/CDDP): 0.147 µM
